For orientation: IC50 means the concentration at which inhibition is half-maximal. By inhibition is commonly meant the drop in the measured response relative to a control, in per cent.

We go through 2 compounds from ChEMBL document CHEMBL5143694, “A novel survivin dimerization inhibitor without a labile hydrazone linker induces spontaneous apoptosis and synergizes with docetaxel in prostate cancer cells” (Bioorg Med Chem, 2022).

The subject of assay [1] is LNCaP C4-2. The assay is described as follows: Induction of apoptosis in human LNCaP C4-2 cells at 200 nM incubated for 24 hrs by annexin V-FITC and propidium iodide staining based flow cytometry. The format is functional.
Assay [2] concerns LNCaP C4-2. The assay can be described thus: Cytotoxicity against human LNCaP C4-2 cells assessed as reduction in cell viability incubated for 72 hrs by methylene blue survival assay. The format is functional, cell-based. The settings on record: LNCaP C4-2, 72 h.
The target in assay [3] is Baculoviral IAP repeat-containing protein 5 (Homo sapiens) (UniProt O15392). The assay can be described thus: Inhibition of survivin dimerization in human PC-3 cells assessed as survivin degradation at 500 nM incubated for 24 hrs by Western blot analysis. Format: cell-based. (In general: A western blot detects proteins with antibodies after separation by electrophoresis.)
Chain of Baculoviral IAP repeat-containing protein 5 (Homo sapiens) (O15392 whole entry, the tested form may be a part): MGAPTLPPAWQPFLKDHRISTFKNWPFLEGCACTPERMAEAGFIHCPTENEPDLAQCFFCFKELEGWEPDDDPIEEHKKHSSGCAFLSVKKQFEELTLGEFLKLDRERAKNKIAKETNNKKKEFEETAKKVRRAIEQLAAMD

The target is the same in assay [4]. The assay can be described thus: Inhibition of survivin dimerization in human LNCaP C4-2 cells assessed as survivin degradation at 1 uM incubated for 24 hrs by Western blot analysis. Format: cell-based.
Assay [5] concerns PC-3. The assay is described as follows: Cytotoxicity against human PC-3 cells assessed as inhibition of cell survival at 2.5 uM incubated for 72 hrs by methylene blue survival assay. Format: functional.
In assay [6] the target is Baculoviral IAP repeat-containing protein 5 (Homo sapiens) (UniProt O15392). The assay is described as follows: Inhibition of survivin dimerization in human LNCaP C4-2 cells assessed as survivin degradation at 500 nM incubated for 24 hrs by Western blot analysis. Format: cell-based.
The subject of assay [7] is LNCaP C4-2. The assay can be described thus: Cytotoxicity against human LNCaP C4-2 cells assessed as inhibition of cell survival at 2.5 uM incubated for 72 hrs by methylene blue survival assay. Format: functional.
Assay [8] addresses Baculoviral IAP repeat-containing protein 5 (Homo sapiens) (UniProt O15392). The assay can be described thus: Inhibition of survivin dimerization in human PC-3 cells assessed as survivin degradation at 1 uM incubated for 24 hrs by Western blot analysis. Format: cell-based.
The test system of assay [9] is LNCaP C4-2. The assay is described as follows: Induction of apoptosis in human LNCaP C4-2 cells assessed as increase in cleaved caspase-3 level at 200 nM incubated for 24 hrs by Western blot analysis. The format is functional, cell-based.
The subject of assay [10] is PC-3. The assay can be described thus: Induction of apoptosis in human PC-3 cells assessed as increase in cleaved caspase-3 level at 200 nM incubated for 24 hrs by Western blot analysis. Format: functional, cell-based.
Assay [11] deals with LNCaP C4-2. The assay can be described thus: Cytotoxicity against human LNCaP C4-2 cells with survivin overexpression assessed as reduction in cell viability incubated for 72 hrs by methylene blue survival assay. The format is functional, cell-based. As to conditions: LNCaP C4-2, 72 h.
In assay [12] the test system is PC-3. The assay can be described thus: Cytotoxicity against human PC-3 cells assessed as reduction in cell viability incubated for 72 hrs by methylene blue survival assay. Format: functional, cell-based. The settings on record: PC-3, 72 h.
In assay [13] the test system is LNCaP C4-2. The assay can be described thus: Synergistic potentiation of docetaxel-induced cytotoxicity against human LNCaP C4-2 cells assessed as combination index for reduction in cell viability at docetaxel/7F1 ratios ((1:1, 3:1, and 1:3 using their cytotoxic IC50) incubated for 72 hrs by methylene blue survival assay. Format: functional.
Assay [14] relates to PC-3. The assay can be described thus: Induction of apoptosis in human PC-3 cells at 200 nM incubated for 24 hrs by annexin V-FITC and propidium iodide staining based flow cytometry. The format is functional.
In assay [15] the test system is LNCaP C4-2. The assay can be described thus: Cytotoxicity against human LNCaP C4-2 cells with empty vector-transfection assessed as reduction in cell viability incubated for 72 hrs by methylene blue survival assay. The format is functional, cell-based. The settings on record: LNCaP C4-2, 72 h.
Assay [16] deals with Baculoviral IAP repeat-containing protein 5 (Homo sapiens) (UniProt O15392). The assay can be described thus: Inhibition of survivin-GAL4-DBD dimerization (unknown origin) expressed in human LNCaP C4-2 cells incubated for 24 hrs by SEAP reporter based mammalian two hybrid assay. The format is cell-based.
Assay [17] deals with PC-3. The assay can be described thus: Synergistic potentiation of docetaxel-induced cytotoxicity against human PC-3 cells assessed as combination index for reduction in cell viability at docetaxel/7F1 ratios ((1:1, 3:1, and 1:3 using their cytotoxic IC50) incubated for 72 hrs by methylene blue survival assay. The format is functional.

Each structure is given as a SMILES string. Activity calls are given as the source filed them. The calls are words filed in the database; no cut-off is given here.

Regarding `O=C1c2ccccc2-c2nc3nonc3nc21`, the Activity with LNCaP C4-2 [1] and in the assay on PC-3 [14] was 20% in each case. In addition, the IC50 in the assay with LNCaP C4-2 [2] is 170 nM; with LNCaP C4-2 [11], 950 nM; with PC-3 [12], 160 nM; in the assay with LNCaP C4-2 [15], 200 nM. For the same compound, the inhibition entry in assay [3], in [4], in assay [6], in assay [8] and in [16] was “Active” throughout. Also, the results for the inhibition at 2.5 µM with PC-3 [5] and in the assay on LNCaP C4-2 [7] were over 80% and 80%, respectively. Also, the outcome in the assay with LNCaP C4-2 [9] and in the assay on PC-3 [10] was Active. In addition, the CI in the assay on LNCaP C4-2 [13] and with PC-3 [17] was 0.025 each time.
Regarding `Nc1nonc1C(=O)N/N=C1\c2ccccc2-c2nc3nonc3nc21`, the IC50 in the assay on LNCaP C4-2 [2] turned out to be 2470 nM; with PC-3 [12] it was 2990 nM. Also, the inhibition result in assay [4], in assay [8] and in [16] was “Active” in each case. In addition, the inhibition at 2.5 µM in the assay with PC-3 [5] and in the assay with LNCaP C4-2 [7] was 50% each time.
